Key:
SMN2 mRNA = test: Gene panel canonical junction qPCR assay, SMN2 CJ mRNA decrease; type: cell-based, human; conditions: Homo sapiens, canonical junction qPCR, read-out: SMN2 IC50 (decrease in CJ mRNA levels)
How it was run: (§1)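 IC50 values describe loss of canonical-junction transcript, fitted by 4-parameter logistic to percent response derived from fixed ΔCt windows. Read-out: RT-qPCR on lysates of compound-treated K562 or A673 cells, probes overlapping the exon junction, ΔΔCt versus housekeeping gene and DMSO control.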

MYB mRNA [1] = test: Splicing RT-qPCR assay, MYB canonical (CJ) and alternative (AJ) junction mRNA; type: cell-based; conditions: Homo sapiens, A673 or K562 cells, 24 hours; for IC50: decrease in canonical junction mRNA; for AC50: increase in alternative junction mRNA
How it was run: (§2)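 Splice switching was scored by qPCR detection of the new alternative-exon junction (AJ) alongside the canonical junction (CJ). Cell lines A673 or K562 received compound 24 h, top dose 10 uM final.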

HTT mRNA = test: Splicing RT-qPCR assay, HTT canonical (CJ) and alternative (AJ) junction mRNA; type: cell-based; conditions: Homo sapiens, A673 or K562 cells, 24 hours; for IC50: decrease in canonical junction mRNA; for AC50: increase in alternative junction mRNA
How it was run: as §2

K562 cells = test: Cell Titer Glo 2.0 cell viability assay in K562 cells; conditions: 72 hours
MYB mRNA [2] = test: Gene panel canonical junction qPCR assay, MYB CJ mRNA decrease; type: cell-based, human; conditions: Homo sapiens, canonical junction qPCR, read-out: MYB IC50 (decrease in CJ mRNA levels)
How it was run: as §1

| Compound | IC50 (SMN2 mRNA) [µM] | IC50 (MYB mRNA [1]) [µM] | IC50 (HTT mRNA) [µM] | IC50 (MYB mRNA [2]) [µM] | AC50 (MYB mRNA [1]) [µM] | AC50 (HTT mRNA) [µM] | Viability (K562 cells) |
| --- | --- | --- | --- | --- | --- | --- | --- |
| Cc1cnc2c(C(=O)Nc3cc(F)c4nc(C)cn4c3)ccc(N3C[C@@H](C)N[C@@H](C)C3)c2n1 [Compound 217, 8-((3R,5S)-3,5-dimethylpiperazin-1-yl)-N-{8-fluoro-2-methylimidazo[1,2-a]pyridin-6-yl}-2-methylquinoxaline-5-carboxamide] | < 0.1 | < 0.1 |  | < 0.1 | < 0.1 |  | B (B represents 100-1000 nM) |
| CCNC1CCN(c2ccc(C(=O)Nc3cc(F)c4nc(C)cn4c3)c3nc(C)ccc23)CC1 [Compound 228, 5-[4-(ethylamino)piperidin-1-yl]-N-{8-fluoro-2-methylimidazo[1,2-a]pyridin-6-yl}-2-methylquinoline-8-carboxamide] | < 0.1 | < 0.1 | 0.1 to 1 | < 0.1 | 0.1 to 1 | 0.1 to 1 | A (A represents <100 nM) |
| CNC1CCN(c2ccc(C(=O)Nc3cc(F)c4nc(C)cn4c3)c3ncc(OC)nc23)C1 (stereo in doubt) [Compound 227, (R)—N-(8-fluoro-2-methylimidazo[1,2-a]pyridin-6-yl)-2-methoxy-8-(3-(methylamino)pyrrolidin-1-yl)quinoxaline-5-carboxamide 2,2,2-trifluoroacetate] | < 0.1 | 1 to 10 | > 10 | 1 to 10 | 1 to 10 | > 10 | A (A represents <100 nM) |
| Cc1cn2cc(NC(=O)c3ccc(N4CCC(NC(C)(C)C)C4)c4ccnnc34)cc(F)c2n1 (centres unmarked) [Compound 109] | 0.1 to 1 | 1 to 10 | 1 to 10 | 1 to 10 | 1 to 10 | 1 to 10 |  |
| COCCOc1ccc2c(N3CCC(N(C)C)CC3)ccc(C(=O)Nc3cc(F)c4nc(C)cn4c3)c2n1 [Compound 229, 5-[4-(dimethylamino)piperidin-1-yl]-N-{8-fluoro-2-methylimidazo[1,2-a]pyridin-6-yl}-2-(2-methoxyethoxy)quinoline-8-carboxamide] | < 0.1 | 0.1 to 1 | > 10 | 0.1 to 1 | < 0.1 | > 10 | A (A represents <100 nM) |

Now from value to compound, other results behind:

| IC50 (SMN2 mRNA) [µM] | IC50 (MYB mRNA [1]) [µM] | IC50 (HTT mRNA) [µM] | IC50 (MYB mRNA [2]) [µM] | Compound | AC50 (MYB mRNA [1]) [µM] | AC50 (HTT mRNA) [µM] | Viability (K562 cells) |
| --- | --- | --- | --- | --- | --- | --- | --- |
| < 0.1 | 0.1 to 1 | 1 to 10 | 0.1 to 1 | CCNC1CCN(c2ccc(C(=O)Nc3cc(F)c4nc(C)cn4c3)c3nc(OCCOC)ccc23)CC1 [Compound 233, 5-[4-(ethylamino)piperidin-1-yl]-N-{8-fluoro-2-methylimidazo[1,2-a]pyridin-6-yl}-2-(2-methoxyethoxy)quinoline-8-carboxamide] | 0.1 to 1 | 1 to 10 | A (A represents <100 nM) |
| < 0.1 | 0.1 to 1 | 1 to 10 | 0.1 to 1 | COCCOc1ccc2c(N3C[C@@H](C)N[C@@H](C)C3)ccc(C(=O)Nc3cc(F)c4nc(C)cn4c3)c2n1 [Compound 232, 5-[(3R,5S)-3,5-dimethylpiperazin-1-yl]-N-{8-fluoro-2-methylimidazo[1,2-a]pyridin-6-yl}-2-(2-methoxyethoxy)quinoline-8-carboxamide] | 0.1 to 1 | 1 to 10 |  |
| > 10 | > 10 | 1 to 10 | > 10 | Cc1cn2cc(NCc3ccc(N4CCNCC4)c4ccnnc34)cc(F)c2n1 [Compound 230, 8-fluoro-2-methyl-N-{[5-(piperazin-1-yl)cinnolin-8-yl]methyl}imidazo[1,2-a]pyridin-6-amine] | > 10 | > 10 | D (D represents greater than 10 μM in K562 cells) |
| < 0.1 | < 0.1 | 1 to 10 | < 0.1 | CNC1CCN(c2ccc(C(=O)Nc3cc(F)c4nc(C)cn4c3)c3nnccc23)C1 (centres unmarked) [Compound 231, N-{8-fluoro-2-methylimidazo[1,2-a]pyridin-6-yl}-5-[3-(methylamino)pyrrolidin-1-yl] cinnoline-8-carboxamide] | < 0.1 | 1 to 10 | B (B represents 100-1000 nM) |

Reference: patent US20240409536A1, “COMPOUNDS AND METHODS FOR MODULATING SPLICING” (REMIX THERAPEUTICS INC., priority 2021, published 2024)
